pIC50: −log10 of the molar value. Where two headings read alike, the source gives them in different places.

Data on 31 compounds can be found in patent publication US20040209914A1, “Aromatic sulfone hydroxamic acids and their use as protease inhibitors” (priority 2000, published 2004).

In assay [1] the test system is solid tumor cancers (colorectal, pancreatic, ovarian, and prostate). The settings on record: patients with advanced, rapidly progressive, treatment-refractory solid tumor cancers; cited from earlier work.
A further assay deals with T1, Recombinant human MMP-13 (Homo sapiens, UniProt P45452).
T1 construct: made in house; host or cells: baculovirus / insect cells
Nature of the assay: biochemical. To be noted: fluorogenic MCA-peptide substrate, pH 7.5, room temperature; for pIC50: read-out: MMP-13 IC50; for IC50: MMP-13 IC50(nM). The gist of the method:
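APMA-activated MMP (proenzyme purified on heparin agarose and chelating zinc columns) incubated at room temperature with 4 uM fluorogenic MCA-ProLeuGlyLeuDpaAlaArgNH2 substrate. Inhibition read as reduced fluorescence versus inhibitor concentration relative to a DMSO control, giving IC50.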

Another assay has as its target T2, Recombinant human MMP-2 (Homo sapiens, UniProt P08253).
T2 construct: made in house
T2 sequence (P08253 110-660): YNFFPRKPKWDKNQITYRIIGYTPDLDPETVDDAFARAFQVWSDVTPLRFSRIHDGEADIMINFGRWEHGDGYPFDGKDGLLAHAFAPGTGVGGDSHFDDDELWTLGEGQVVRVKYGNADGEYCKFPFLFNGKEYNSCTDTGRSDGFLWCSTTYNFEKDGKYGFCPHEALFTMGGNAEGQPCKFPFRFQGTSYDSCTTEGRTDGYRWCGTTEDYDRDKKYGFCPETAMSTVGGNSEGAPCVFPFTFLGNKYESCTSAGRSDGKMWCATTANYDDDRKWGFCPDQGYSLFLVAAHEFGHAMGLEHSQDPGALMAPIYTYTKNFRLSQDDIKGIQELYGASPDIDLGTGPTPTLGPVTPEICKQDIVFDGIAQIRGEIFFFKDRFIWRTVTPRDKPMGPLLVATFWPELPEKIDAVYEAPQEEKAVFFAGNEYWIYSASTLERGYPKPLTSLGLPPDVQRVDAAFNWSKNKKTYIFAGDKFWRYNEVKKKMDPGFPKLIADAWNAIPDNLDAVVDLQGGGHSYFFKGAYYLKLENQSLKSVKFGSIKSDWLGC
Nature of the assay: biochemical. To be noted: fluorogenic MCA-peptide substrate, pH 7.5, room temperature; for pIC50: read-out: MMP-2 IC50; for IC50: MMP-2 IC50(nM). Put shortly:
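Activated (APMA or trypsin) recombinant human MMP-2, from transfected expressing cells, incubated at room temperature with 4 uM fluorogenic substrate MCA-Pro-Leu-Gly-Leu-Dpa-Ala-Arg-NH2 and hydroxamate inhibitor.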

For a further assay, the target named is T3, Recombinant human MMP-1 (Homo sapiens, UniProt P03956).
T3 construct: made in house; host or cells: transfected HT-1080 cells
T3 sequence (P03956 100-469): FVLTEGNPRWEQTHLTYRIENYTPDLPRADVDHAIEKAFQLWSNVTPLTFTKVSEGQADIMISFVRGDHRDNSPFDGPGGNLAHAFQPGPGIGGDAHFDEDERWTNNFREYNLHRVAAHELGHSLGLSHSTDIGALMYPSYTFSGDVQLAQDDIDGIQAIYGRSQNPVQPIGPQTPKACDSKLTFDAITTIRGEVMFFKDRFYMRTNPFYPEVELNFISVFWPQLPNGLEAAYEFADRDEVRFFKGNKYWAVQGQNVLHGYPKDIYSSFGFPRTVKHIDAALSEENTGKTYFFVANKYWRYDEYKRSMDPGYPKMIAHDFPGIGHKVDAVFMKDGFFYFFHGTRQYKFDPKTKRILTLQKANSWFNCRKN
The assay is described as follows: biochemical. The settings on record: fluorogenic MCA-peptide substrate, pH 7.5, room temperature. Put shortly: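 Recombinant human MMP-1 from transfected HT-1080 cells, APMA-activated and hydroxamate-column purified, was incubated at room temperature with 4 uM MCA-ProLeuGlyLeuDpaAlaArgNH2 fluorogenic substrate. Inhibition taken as fall in fluorescence versus inhibitor concentration, giving IC50.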

Turning to `CNC(=O)[C@@H](NC(=O)[C@H](CC(C)C)[C@H](O)C(=O)NO)C(C)(C)C` [Marimastat], the “effect on cancer-specific antigens used as surrogate markers for biological activity” value in assay [1] was “dose-related reduction in the rise of cancer-specific antigens”.

The pIC50 is the IC50 on a negative log10 scale, so that one unit is a factor of ten. As for `CCCCc1ccc(C(=O)C2CCN(c3ccc(S(=O)(=O)C4(C(=O)NO)CCN(CCOC)CC4)cc3)CC2)s1` [Example 121], the pIC50 at Recombinant human MMP-13 was 10.00; on Recombinant human MMP-2 it was 7.23; at Recombinant human MMP-1, under 5.00.

In the case of `COCCN1CCC(C(=O)NO)(S(=O)(=O)c2ccc(N3CCC(C(=O)c4ccc(CC5CCCC5)cc4)CC3)cc2)CC1` [Example 202], the pIC50 at Recombinant human MMP-13 was 9.40; at Recombinant human MMP-2 it was 5.99; on Recombinant human MMP-1 it was under 5.00.

On to `COCCN1CCC(C(=O)NO)(S(=O)(=O)c2ccc(N3CCC(C(=O)c4ccc(CCC(C)C)cc4)CC3)cc2)CC1` [Example 246], for which the pIC50 was 9.00 on Recombinant human MMP-13, 5.57 on Recombinant human MMP-2 and under 5.00 on Recombinant human MMP-1.

On to `COCCN1CCC(C(=O)NO)(S(=O)(=O)c2ccc(N3CCC(C(=O)c4ccc(CC5CCC5)cc4)CC3)cc2)CC1` [Example 201], for which the pIC50 at Recombinant human MMP-13 was 9.70; on Recombinant human MMP-2 it was 5.20; on Recombinant human MMP-1, under 5.00.

Take `O=C(C1CCN(c2ccc(S(=O)(=O)C3(C(=O)NO)CCOCC3)cc2)CC1)N1CCN(c2ccc([N+](=O)[O-])cc2)CC1` [Example 25]: the pIC50 was 8.40 at Recombinant human MMP-13, 6.35 on Recombinant human MMP-2 and under 5.00 at Recombinant human MMP-1.

On to `CCN1CCC(C(=O)NO)(S(=O)(=O)c2ccc(N3CCC(C(=O)c4ccc(N(C)C)cc4)CC3)cc2)CC1` [Example 168], for which the negative logarithm of the IC50 (pIC50) on Recombinant human MMP-13 is 8.68; on Recombinant human MMP-2, 5.66; on Recombinant human MMP-1, under 5.00.

On to `Cc1ccc(Cl)cc1N1CCN(C(=O)C2CCN(c3ccc(S(=O)(=O)C4(C(=O)NO)CCOCC4)cc3)CC2)CC1` [Example 6], for which the pIC50 at Recombinant human MMP-13 was 7.74; at Recombinant human MMP-2, under 5.00; on Recombinant human MMP-1 it was under 5.00.

Take `Cc1cc(C(=O)C2CCN(c3ccc(S(=O)(=O)C4(C(=O)NO)CCN(S(C)(=O)=O)CC4)cc3)CC2)ccc1Cl` [Example 219]: the pIC50 is 8.31 on Recombinant human MMP-13, 6.59 at Recombinant human MMP-2 and under 5.00 on Recombinant human MMP-1.

Consider `CC(C)Cc1ccc(C(=O)C2CCN(c3ccc(S(=O)(=O)C4(C(=O)NO)CCOCC4)cc3)CC2)cc1` [Example 377], for which the values for the pIC50 on Recombinant human MMP-13, at Recombinant human MMP-2 and on Recombinant human MMP-1 were 9.40, 6.44 and under 5.00, respectively.

For `O=C(c1ccc(Br)cc1)C1CCN(c2ccc(S(=O)(=O)C3(C(=O)NO)CCOCC3)cc2)CC1` [Example 378], the pIC50 at Recombinant human MMP-13 is 9.52; on Recombinant human MMP-2, 7.55; at Recombinant human MMP-1, under 5.00.

In the case of `O=C(c1ccc2ccccc2c1)C1CCN(c2ccc(S(=O)(=O)C3(C(=O)NO)CCN(CC4CC4)CC3)cc2)CC1` [Example 187], the figures for the pIC50 at Recombinant human MMP-13, on Recombinant human MMP-2 and at Recombinant human MMP-1 were 8.57, 6.62 and under 5.00, respectively.

`C=CCN1CCC(C(=O)NO)(S(=O)(=O)c2ccc(N3CCC(C(=O)c4ccc(Cl)cc4)CC3)cc2)CC1` [Example 180]: the pIC50 at Recombinant human MMP-13 is 9.52; at Recombinant human MMP-2, 7.28; at Recombinant human MMP-1, under 5.00.

For `CCC(CC)Cc1ccc(C(=O)C2CCN(c3ccc(S(=O)(=O)C4(C(=O)NO)CCN(CCOC)CC4)cc3)CC2)cc1` [Example 230], the results for the pIC50 at Recombinant human MMP-13, at Recombinant human MMP-2 and on Recombinant human MMP-1 were 10.00, 6.13 and under 5.00, respectively.

Take `O=C(NO)C1(S(=O)(=O)c2ccc(N3CCC(c4ccc(F)cc4)CC3)cc2)CCN(CC2CC2)CC1` [Example 263]: the pIC50 at Recombinant human MMP-13 is 8.82; at Recombinant human MMP-2, 8.59; at Recombinant human MMP-1 it was under 5.00.

Regarding `COCCN1CCC(C(=O)NO)(S(=O)(=O)c2ccc(N3CCC(C(=O)c4ccc(CN(C)C)s4)CC3)cc2)CC1` [Example 223], the negative logarithm of the IC50 (pIC50) on Recombinant human MMP-13 was 8.60; at Recombinant human MMP-2, 7.09; at Recombinant human MMP-1, under 5.00.

Usually IC50 stands for the concentration needed to halve the response being measured. For the compound `O=C(C1CCN(c2ccc(S(=O)(=O)C3(C(=O)NO)CCOCC3)cc2)CC1)N1CCN(c2ncccn2)CC1` [Example 23], the IC50 on Recombinant human MMP-13 turned out to be 6.4 nM; at Recombinant human MMP-2 it was 1600 nM. For the same compound, the pIC50 on Recombinant human MMP-1 is under 5.00.

Regarding `CCc1ccc(C(=O)C2CCN(c3ccc(S(=O)(=O)C4(C(=O)NO)CCN(CC)CC4)cc3)CC2)cc1` [Example 222], the pIC50 is 9.00 at Recombinant human MMP-13, 6.71 at Recombinant human MMP-2 and under 5.00 at Recombinant human MMP-1.

Consider `CCc1ccc(C(=O)C2CCN(c3ccc(S(=O)(=O)C4(C(=O)NO)CCN(CCOC)CC4)cc3)CC2)cc1` [Example 212], for which the negative logarithm of the IC50 (pIC50) is 9.70 on Recombinant human MMP-13, 6.96 on Recombinant human MMP-2 and under 5.00 at Recombinant human MMP-1.

As for `COc1ccc(C(=O)C2CCN(c3ccc(S(=O)(=O)C4(C(=O)NO)CCOCC4)cc3)CC2)cc1C` [Example 305], the negative-log IC50 (pIC50) on Recombinant human MMP-13 was 8.22; at Recombinant human MMP-2, 5.48; on Recombinant human MMP-1, under 5.00.

Turning to `COCCN1CCC(C(=O)NO)(S(=O)(=O)c2ccc(N3CCC(C(=O)c4ccc(CC(C)CO)cc4)CC3)cc2)CC1` (stereo not shown) [Example 231], the values for the pIC50 on Recombinant human MMP-13, on Recombinant human MMP-2 and on Recombinant human MMP-1 were 9.30, 7.40 and under 5.00, respectively.

In the case of `C#CCN1CCC(C(=O)NO)(S(=O)(=O)c2ccc(N3CCC(C(=O)c4ccc(OC(C)C)c(C)c4)CC3)cc2)CC1` [Example 162], the negative-log IC50 (pIC50) on Recombinant human MMP-13 is 8.57; at Recombinant human MMP-2 it was 6.31; on Recombinant human MMP-1 it was under 5.00.

Consider `CCN1CCC(C(=O)NO)(S(=O)(=O)c2ccc(N3CCC(C(=O)c4ccc(CCC(C)O)cc4)CC3)cc2)CC1` (stereo not shown) [Example 248], for which the figures for the pIC50 at Recombinant human MMP-13, on Recombinant human MMP-2 and on Recombinant human MMP-1 were 9.22, 6.85 and under 5.00, respectively.

Regarding `O=C(C1CCN(c2ccc(S(=O)(=O)C3(C(=O)NO)CCOCC3)cc2)CC1)N1CCN(C2CCCC2)CC1` [Example 14], the pIC50 is 7.35 at Recombinant human MMP-13, under 5.00 at Recombinant human MMP-2 and under 5.00 at Recombinant human MMP-1.

In the case of `CC(=O)N1CCN(C(=O)C2CCN(c3ccc(S(=O)(=O)C4(C(=O)NO)CCOCC4)cc3)CC2)CC1` [Example 8], the negative-log IC50 (pIC50) at Recombinant human MMP-13 is 7.30; on Recombinant human MMP-1 it was under 5.00. Further, on Recombinant human MMP-2, the IC50 worked out at 2500 nM.

Turning to `CCCc1ccc(C(=O)C2CCN(c3ccc(S(=O)(=O)C4(C(=O)NO)CCN(CCOC)CC4)cc3)CC2)cc1` [Example 120], the pIC50 on Recombinant human MMP-13 is 9.07; at Recombinant human MMP-2, 6.90; at Recombinant human MMP-1 it was under 5.00.

Take `COc1ccc(C(=O)C2CCN(c3ccc(S(=O)(=O)C4(C(=O)NO)CCN(CC5CC5)CC4)cc3)CC2)cc1` [Example 188]: the pIC50 on Recombinant human MMP-13 was 8.70; on Recombinant human MMP-2, 6.60; on Recombinant human MMP-1 it was under 5.00.

With `CC(C)Oc1ccc(C(=O)C2CCN(c3ccc(S(=O)(=O)C4(C(=O)NO)CCN(C5CC5)CC4)cc3)CC2)cc1` [Example 215], the pIC50 at Recombinant human MMP-13 is 9.05; at Recombinant human MMP-2 it was 7.64; on Recombinant human MMP-1 it was under 5.00.

With `Cc1ccc(C2CCN(c3ccc(S(=O)(=O)C4(C(=O)NO)CCN(C5CC5)CC4)cc3)CC2)cc1` [Example 272], the values for the pIC50 on Recombinant human MMP-13, on Recombinant human MMP-2 and on Recombinant human MMP-1 were 8.89, 8.23 and under 5.00, respectively.

`O=C(C1CCN(c2ccc(S(=O)(=O)C3(C(=O)NO)CCOCC3)cc2)CC1)N1CCN(c2ccccc2F)CC1` [Example 12]: the figures for the IC50 on Recombinant human MMP-13 and on Recombinant human MMP-2 were 6.7 nM and 1400 nM, respectively. Besides, the pIC50 at Recombinant human MMP-1 is under 5.00.

For `O=C(NO)C1(S(=O)(=O)c2ccc(N3CCC(c4ccc(Cl)cc4)CC3)cc2)CCN(C2CC2)CC1` [Example 270], the pIC50 is 8.96 at Recombinant human MMP-13, 8.72 on Recombinant human MMP-2 and under 5.00 on Recombinant human MMP-1.
